Results as given in ChEMBL document CHEMBL1201862, “PubChem BioAssay data set” (2004).
The source made the active and inactive calls.

Legend:
[1] = target: SUMO-activating enzyme (Homo sapiens, UniProt Q9UBT2); experiment: SUMOylation inhibitor hit validation, confirmation, SUMOylation inhibitor project, biochemical, AlphaScreen (AID 2018); format: functional
[2] = target: T1, Bcl-2-related protein A1 (Mus musculus, UniProt Q07440); format: functional;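 note: confirmatory dose–response counterscreen on Bfl-1, used to check hits from a UBC13 polyubiquitin inhibitor campaign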
T1 sequence (Q07440 whole entry): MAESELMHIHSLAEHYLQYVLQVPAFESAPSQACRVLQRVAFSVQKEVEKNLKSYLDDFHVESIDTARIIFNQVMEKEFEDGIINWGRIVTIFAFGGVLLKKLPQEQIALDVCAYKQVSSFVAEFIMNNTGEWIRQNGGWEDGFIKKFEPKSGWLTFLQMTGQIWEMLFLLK

[3] = target: T2, Ubiquitin-conjugating enzyme E2 N (Homo sapiens, UniProt P61088); format: functional
T2 sequence (P61088 whole entry): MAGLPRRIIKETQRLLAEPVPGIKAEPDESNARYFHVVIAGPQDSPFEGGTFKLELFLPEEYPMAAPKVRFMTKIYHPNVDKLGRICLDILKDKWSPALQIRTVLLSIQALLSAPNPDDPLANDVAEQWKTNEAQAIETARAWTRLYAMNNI

[4] = target: T2, Ubiquitin-conjugating enzyme E2 N; format: functional; remark: listed apart in the source
[5] = inhibitors of firefly luciferase expression or activity, dose response, H4 neuroglioma cells, luminescence (AID 1990); format: functional, cell-based
[6] = test system: HEK293; experiment: NOD1 signaling inhibitors, primary screen, cell-based, luminescence, uHTS (AID 1578); format: functional; details: Homo sapiens
[7] = test system: BJ; experiment: cytotoxicity toward BJ-TERT fibroblasts, dose response, cell-based, RAS-independent, luminescence (AID 1933); format: functional; details: Homo sapiens
[8] = test system: HEK293; experiment: cells; format: functional, cell-based; details: Homo sapiens
[9] = Luminescence Cell-Based Dose Response HTS to Identify Inhibitors of 5'UTR Stem-Loop Driven Prion Protein mRNA Translation in H4 Neuroglioblastoma Cells. [Related pubchem assays: 1827 (Project Summary), 1813 (Primary HTS)]; format: functional
[10] = inhibitors of SNCA 5'UTR-driven reporter translation, confirmation, H4 neuroglioma cells, luminescence (AID 1988); format: functional, cell-based
[11] = test system: BJ; experiment: cells; format: functional, cell-based; details: Homo sapiens
[12] = test system: HEK293; experiment: cells; format: functional, cell-based; details: Homo sapiens; remark: listed apart in the source
[13] = target: Nucleotide-binding oligomerization domain-containing protein 2 (Homo sapiens, UniProt Q9HC29); experiment: NOD2 signaling inhibitors, cell-based, luminescence, uHTS, HEK293 (AID 1566); format: functional
Nucleotide-binding oligomerization domain-containing protein 2, sequence (Q9HC29 whole entry, the tested form may be a part): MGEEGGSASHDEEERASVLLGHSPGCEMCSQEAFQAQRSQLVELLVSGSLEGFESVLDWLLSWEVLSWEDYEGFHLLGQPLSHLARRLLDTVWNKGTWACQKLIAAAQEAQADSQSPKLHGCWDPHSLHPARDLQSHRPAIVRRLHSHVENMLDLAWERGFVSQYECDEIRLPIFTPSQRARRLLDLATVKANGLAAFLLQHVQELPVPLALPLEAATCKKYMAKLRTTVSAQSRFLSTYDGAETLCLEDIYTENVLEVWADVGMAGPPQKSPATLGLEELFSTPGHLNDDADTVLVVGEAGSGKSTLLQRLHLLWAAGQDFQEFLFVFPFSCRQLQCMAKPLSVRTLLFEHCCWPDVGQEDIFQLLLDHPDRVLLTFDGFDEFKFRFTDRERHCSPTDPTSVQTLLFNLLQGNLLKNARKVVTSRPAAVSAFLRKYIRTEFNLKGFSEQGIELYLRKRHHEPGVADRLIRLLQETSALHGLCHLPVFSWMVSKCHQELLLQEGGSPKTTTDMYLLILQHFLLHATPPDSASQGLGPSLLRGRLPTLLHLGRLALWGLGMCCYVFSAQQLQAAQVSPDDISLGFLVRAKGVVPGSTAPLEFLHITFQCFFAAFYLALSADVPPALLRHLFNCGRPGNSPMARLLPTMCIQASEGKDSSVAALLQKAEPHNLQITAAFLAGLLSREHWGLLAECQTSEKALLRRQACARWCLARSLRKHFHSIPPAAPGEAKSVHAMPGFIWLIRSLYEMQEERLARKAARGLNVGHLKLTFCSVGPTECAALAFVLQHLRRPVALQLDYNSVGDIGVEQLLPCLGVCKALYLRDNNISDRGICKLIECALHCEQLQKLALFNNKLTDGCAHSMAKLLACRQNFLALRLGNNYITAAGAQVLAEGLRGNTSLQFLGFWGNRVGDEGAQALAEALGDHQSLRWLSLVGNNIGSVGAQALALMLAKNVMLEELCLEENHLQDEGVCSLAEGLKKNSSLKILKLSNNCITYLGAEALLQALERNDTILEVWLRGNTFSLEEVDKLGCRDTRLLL

[14] = test system: HEK293; experiment: NOD2 signaling inhibitors in MDP-stimulated cells, cell-based, uHTS, luminescence (AID 2001); format: functional; details: Homo sapiens
[15] = test system: HEK293; experiment: cells; format: functional, cell-based; details: Homo sapiens; remark: listed apart in the source
[16] = test system: BJ; experiment: cytotoxicity toward BJ-TERT-LT-ST fibroblasts, dose response, cell-based, RAS-independent, luminescence (AID 1935); format: functional; details: Homo sapiens;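 note: BJ fibroblasts immortalized with TERT plus LT and ST oncogenes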
[17] = cytotoxicity toward DRD oncogenic fibroblasts, dose response, cell-based, non-viral oncogenic, luminescence (AID 1934); format: functional; details: Homo sapiens
[18] = THP-1 cell cytotoxicity, dose response, cytotoxicity control for non-replicating M. tuberculosis project (AID 489025); format: functional
[19] = HepG2 cell cytotoxicity, dose response, cytotoxicity control for non-replicating M. tuberculosis project (AID 489018); format: functional; details: Mycobacterium tuberculosis
[20] = Vero E6 cell cytotoxicity, dose response, cytotoxicity control for non-replicating M. tuberculosis project, secondary assay (AID 492998); format: functional, VeroE6; details: Vero C1008
[21] = target: T3, Microphthalmia-associated transcription factor (Homo sapiens, UniProt O75030); experiment: TRPM1 promoter luciferase signal decrease, dose response, MITF inhibitor project, cell-based, SK-MEL-5, cherry-picked, set 3 (AID 493073); format: functional
T3 sequence (O75030 whole entry): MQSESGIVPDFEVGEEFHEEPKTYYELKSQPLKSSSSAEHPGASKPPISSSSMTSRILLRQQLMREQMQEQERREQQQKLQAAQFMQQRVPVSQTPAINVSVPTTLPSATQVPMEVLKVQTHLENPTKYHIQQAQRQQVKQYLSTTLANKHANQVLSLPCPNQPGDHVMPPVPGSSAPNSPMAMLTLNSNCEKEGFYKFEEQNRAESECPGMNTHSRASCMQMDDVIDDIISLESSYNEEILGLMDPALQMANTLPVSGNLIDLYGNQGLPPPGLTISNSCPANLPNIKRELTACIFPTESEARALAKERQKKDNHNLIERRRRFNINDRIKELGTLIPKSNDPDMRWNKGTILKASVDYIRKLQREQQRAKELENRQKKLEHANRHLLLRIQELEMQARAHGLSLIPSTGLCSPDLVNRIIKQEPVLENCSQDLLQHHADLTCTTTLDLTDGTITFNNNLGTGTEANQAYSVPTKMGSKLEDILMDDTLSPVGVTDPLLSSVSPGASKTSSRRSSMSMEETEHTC

[22] = cells; format: functional
[23] = test system: BJ; experiment: cytotoxicity toward Ras-transformed BJeLR fibroblasts, dose response, cell-based, alamar blue fluorescence, cherrypicked samples (AID 2631); format: functional; details: Homo sapiens;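 note: confirmatory dose-response assay in RAS-dependent BJ fibroblasts engineered with TERT, LT and ST, with cytotoxicity read by fluorescence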
[24] = test system: INS1; experiment: beta cell apoptosis inhibitors, cytokine rescue, dose response, luminescence, retest (AID 449756); format: functional, cell-based; details: Rattus norvegicus;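 note: cell death triggered by IL-1 beta plus TNF-alpha plus IFN-gamma mixture; protective hits raise ATP signal compared with cytokine alone wells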
[25] = Luminescence Cell-Based Dose Confirmation HTS to Identify Activators of 5'UTR Stem-Loop Driven Alpha-Synuclein mRNA Translation in H4 Neuroglioblastoma Cells. [Related pubchem assays: 1829 (Project Summary), 1814 (Primary HTS)]; format: functional
[26] = Luminescence Cell-Based Dose Response HTS to Identify Activators of Luciferase Translation or Activity in H4 […] Cells. [Related pubchem assays: 1829 (Project Summary), 1814 (Primary HTS)]; format: functional
[27] = test system: H4; experiment: Luminescence Cell-Based Dose Response HTS to Identify Activators of 5'UTR Stem-Loop Driven Prion Protein mRNA Translation in H4 Neuroglioblastoma Cells. [Related pubchem assays: 1829 (Project Summary), 1814 (Primary HTS)]; format: functional; details: Homo sapiens
[28] = cytotoxicity in HPDE-C7 cells, cell-based, fluorescence, HTS (AID 430); format: functional; details: Homo sapiens
[29] = microbe, parasite or virus in culture; format: functional; details: Mycobacterium tuberculosis
[30] = cytotoxicity in KRAS-transformed pancreatic duct cells, primary screen, cell-based, fluorescence, HTS (AID 431); format: functional; details: Homo sapiens;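 note: cell line used: HPDE-C7K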
[31] = target: Paired box protein Pax-8 (Homo sapiens, UniProt Q06710); experiment: inhibitors of PAX8-driven TPO luciferase reporter, dose response, RMG-I cells, cherry-pick (AID 687027); format: functional, cell-based;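 note: luciferase reporter driven by Pax8 target thyroperoxidase promoter measured by SteadyGlo luminescence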
Paired box protein Pax-8, sequence (Q06710 whole entry): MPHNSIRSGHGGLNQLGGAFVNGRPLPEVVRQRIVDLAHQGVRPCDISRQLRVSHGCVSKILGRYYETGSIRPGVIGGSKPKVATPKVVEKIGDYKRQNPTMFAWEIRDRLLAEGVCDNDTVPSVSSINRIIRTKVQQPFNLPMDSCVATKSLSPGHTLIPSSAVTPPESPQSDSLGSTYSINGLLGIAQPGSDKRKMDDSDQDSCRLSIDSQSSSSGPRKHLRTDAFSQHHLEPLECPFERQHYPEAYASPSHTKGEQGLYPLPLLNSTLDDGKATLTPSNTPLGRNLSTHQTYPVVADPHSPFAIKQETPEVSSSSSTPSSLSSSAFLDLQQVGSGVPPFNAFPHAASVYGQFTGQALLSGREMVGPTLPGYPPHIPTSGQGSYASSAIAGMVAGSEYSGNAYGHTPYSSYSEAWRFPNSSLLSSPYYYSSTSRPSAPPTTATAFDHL

[32] = target: T4, Coagulation factor XII (Homo sapiens, UniProt P00748); format: functional;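 note: activated factor XIIa alpha cleaving a fluorogenic AMC peptide substrate; inhibitor potency from loss of enzyme activity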
T4 sequence (P00748 whole entry): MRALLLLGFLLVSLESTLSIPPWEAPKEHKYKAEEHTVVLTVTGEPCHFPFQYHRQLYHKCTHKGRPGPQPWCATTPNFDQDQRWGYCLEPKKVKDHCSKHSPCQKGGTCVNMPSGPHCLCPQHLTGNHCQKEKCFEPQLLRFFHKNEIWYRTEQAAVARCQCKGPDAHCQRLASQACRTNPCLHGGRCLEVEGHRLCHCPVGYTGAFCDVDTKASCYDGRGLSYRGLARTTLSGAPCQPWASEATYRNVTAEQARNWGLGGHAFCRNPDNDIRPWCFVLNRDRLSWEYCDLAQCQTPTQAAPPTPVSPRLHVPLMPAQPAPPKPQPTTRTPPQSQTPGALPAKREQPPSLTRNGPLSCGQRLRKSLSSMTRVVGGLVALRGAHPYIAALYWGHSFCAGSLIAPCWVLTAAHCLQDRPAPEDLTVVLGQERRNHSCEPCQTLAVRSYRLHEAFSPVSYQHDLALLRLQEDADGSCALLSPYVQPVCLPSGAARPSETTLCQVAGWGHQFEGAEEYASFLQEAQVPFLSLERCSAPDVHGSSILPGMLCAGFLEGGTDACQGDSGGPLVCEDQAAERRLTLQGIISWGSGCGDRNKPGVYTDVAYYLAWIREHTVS

SUMO-activating enzyme, sequence (Q9UBE0 whole entry): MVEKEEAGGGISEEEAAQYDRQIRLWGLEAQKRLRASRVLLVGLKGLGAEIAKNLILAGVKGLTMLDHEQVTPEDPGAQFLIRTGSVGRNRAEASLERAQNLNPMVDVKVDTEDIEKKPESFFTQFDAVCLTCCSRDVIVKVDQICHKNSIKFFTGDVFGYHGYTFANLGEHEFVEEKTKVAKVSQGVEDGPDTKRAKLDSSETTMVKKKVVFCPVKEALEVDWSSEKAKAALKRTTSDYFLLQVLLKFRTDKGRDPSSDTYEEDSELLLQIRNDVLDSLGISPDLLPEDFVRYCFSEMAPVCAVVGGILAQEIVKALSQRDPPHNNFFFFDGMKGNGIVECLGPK
SUMO-activating enzyme, sequence (Q9UBT2 whole entry): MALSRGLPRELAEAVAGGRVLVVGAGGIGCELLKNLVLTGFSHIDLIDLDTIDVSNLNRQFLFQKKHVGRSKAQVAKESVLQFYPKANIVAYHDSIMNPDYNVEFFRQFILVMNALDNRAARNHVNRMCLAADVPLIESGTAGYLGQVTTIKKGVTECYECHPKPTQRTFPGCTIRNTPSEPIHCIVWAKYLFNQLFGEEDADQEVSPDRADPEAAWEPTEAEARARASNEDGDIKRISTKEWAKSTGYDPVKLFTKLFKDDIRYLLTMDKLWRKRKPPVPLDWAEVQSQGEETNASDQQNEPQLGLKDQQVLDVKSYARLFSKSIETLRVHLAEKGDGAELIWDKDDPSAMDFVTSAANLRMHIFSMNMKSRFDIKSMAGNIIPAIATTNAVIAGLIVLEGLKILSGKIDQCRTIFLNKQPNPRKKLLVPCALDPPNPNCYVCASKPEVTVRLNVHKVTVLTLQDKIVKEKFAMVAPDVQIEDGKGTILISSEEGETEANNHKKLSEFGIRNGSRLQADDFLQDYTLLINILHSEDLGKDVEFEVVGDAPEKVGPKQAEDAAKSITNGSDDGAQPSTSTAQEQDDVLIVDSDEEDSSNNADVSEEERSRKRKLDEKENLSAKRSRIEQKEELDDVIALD

## CC(=O)Nc1ccc(S(=O)(=O)Nc2nc3ccccc3nc2Nc2ccc3ccccc3c2)cc1
[1]
  IC50: > 100 µM (inactive)

## COc1ccc(CN(C)C(=O)Cc2ccc(OC)c(S(=O)(=O)N3CCOCC3)c2)cc1OC
[2]
  IC50: > 20 µM (inactive)
[3]
  IC50: 12.6 µM (active)
[4]
  IC50: 10.8 µM (active)

## O=C(N/N=C/c1ccc([N+](=O)[O-])o1)c1cc2ccccc2o1
[5]
  EC50: > 120 µM (not active)
[6]
  EC50: 7.3 µM (active)
[7]
  EC50: 21.2 µM (active)
[8]
  IC50: 16.1 µM (active)
[9]
  EC50: > 60 µM (not active)
[10]
  EC50: > 120 µM (not active)
[11]
  EC50: 10.7 µM (active)
[12]
  IC50: > 20 µM (inactive)
[13]
  EC50: 10.5 µM (active)
[14]
  IC50: 17.8 µM (inactive)
[15]
  IC50: > 20 µM (inactive)
[16]
  EC50: 14.1 µM (inconclusive)
[17]
  EC50: 23.8 µM (active)
[18]
  CC50: 22 µM (active)
[19]
  CC50: 17 µM (active)
[20]
  CC50: > 20 µM (active)
[21]
  AC50: 5.99 µM (active)
[22]
  IC50: 1.85 µM (active)
[23]
  EC50: 4.63 µM (inconclusive)
[24]
  AC50: 2.63 µM (active)

## Nc1nnnn1/N=C/C(Br)=C/c1ccccc1
[25]
  EC50: 17.4 µM (active)
[26]
  EC50: > 120 µM (not active)
[7]
  EC50: 5.12 µM (inconclusive)
[27]
  EC50: > 120 µM (not active)
[11]
  EC50: > 150 µM (inconclusive)
[28]
  EC50: 2.37 µM (active)
[29]
  CC50: 6.31 µM (active)
[30]
  EC50: 2.94 µM (active)
[16]
  EC50: > 38 µM (inconclusive)
[17]
  EC50: 3.95 µM (active)
[18]
  CC50: 5.96 µM (active)
[19]
  CC50: 10 µM (active)
[20]
  CC50: 5.79 µM (active)
[21]
  AC50: 5.44 µM (active)
[22]
  IC50: 5.76 µM (active)
[31]
  AC50: 1.36 µM (active)

## CN(/N=C/c1ccc2c(c1)OCO2)c1nc(N2CCOCC2)nc(N2CCOCC2)n1
[32]
  IC50: > 50 µM (inactive)
